According to ChEMBL document CHEMBL1201862, “PubChem BioAssay data set” (2004):
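Method: 48-hour compound exposure of cells in 96-well plates, five concentrations, linear interpolation of endpoints. Abbreviation: GI50, concentration required for 50% inhibition of growth.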 Calls of active or inactive are those of the source. No stated cut-off is given here; in the data, active = GI50 up to about 1.1 µM and inactive = higher.

Assays:
Assay in all cases: growth of human tumour cells (NCI), 48 h
[1] = tested on: BT-549
[2] = tested on: DLD-1
[3] = tested on: KM-20L2
[4] = tested on: SNB-78
[5] = tested on: DMS-114
[6] = tested on: HOP-18
[7] = tested on: LXFL 529
[8] = tested on: RXF 631

Measured: GI50

CC1CN=C(NCc2ccccc2)S1 (stereo not given)
inactive: [1] > 100 µM

Cc1cn(C2CC(O)C(Cn3nncc3Cn3ncc(=O)[nH]c3=O)O2)c(=O)[nH]c1=O (stereo not given)
inactive: [1] > 100 µM

CCCCOC(=O)CN1C(=O)c2ccccc2C1=O
inactive: [2] > 100 µM | [3] > 100 µM | [4] > 100 µM

CC1(C)CCc2cc3c(-c4ccccc4)cc(=O)oc3cc2O1
inactive: [2] > 100 µM | [5] > 100 µM | [6] 47.8 µM | [3] > 100 µM | [7] > 100 µM | [8] > 100 µM | [4] 85.7 µM

O=c1c2ccccc2[nH]c2cc(O)cc(O)c12
inactive: [6] > 100 µM | [7] 39.3 µM | [4] > 100 µM
